Data as given in paper PMC5904360, “Soluble N-Ethylmaleimide-Sensitive Factor Attachment Protein Receptor-Derived Peptides for Regulation of Mast Cell Degranulation” (Frontiers in Immunology, 2018).

Columns and labels:
[1] = tested on: NC/Nga mice; experiment: DNCB-induced atopic dermatitis-like skin lesions; assay type: in vivo, mouse; conditions: 0.3 and 3% peptide/day or 0.1% dexamethasone/day for 4 weeks, n = 10 per group (Figure 5D)
Excerpt: Seven-week-old NC/Nga mice were purchased from the Shizuoka Laboratory Animal Center (Shizuoka, Japan) and allowed to adapt to the environment for a week prior to use. The procedures for the induction of atopic dermatitis-like symptoms in mice using 1-chloro-2,4-dinitro-benzene (DNCB) have been well described previously ([27]). Briefly, the dorsal hair of the mice was shaved 2 days before DNCB administration. For the induction of atopic dermatitis, 1% DNCB was applied to the dorsal skin of the mice twice weekly for 7 days and then 0.2% DNCB was applied thrice weekly for 21 days. The mice were divided into the following […] treatment groups (n = 10 per group): 0.3 and 3% Vp2N/day, 0.3 and 3% Vp8N/day, 0.1% dexamethasone/day, and vehicle only, dorsally administered from 9 to 13 weeks of age. As a negative control for atopic dermatitis, NC/Nga mice that were not treated with DNCB were maintained under pathogen-free conditions. Laboratory animal breeding management was based on the “Guide for the Care and Use of Laboratory Animals,” and all experiments were approved by the Institutional Animal Care and Use Committees of Gyeonggi Institute of Science & Technology.

[2] = topical glucocorticosteroid; cited from earlier work
[3] = tested on: RBL-2H3 mast cells; experiment: Degranulation assay, β-hexosaminidase release; assay type: cell-based, rat
[4] = tested on: RBL-2H3 mast cells; experiment: Degranulation assay, histamine release (enzyme immunoassay); assay type: cell-based, rat
[5] = target: T1, SN23-Syn4-Vp2 complex (Rattus norvegicus, UniProt O70377+P63045+Q08850); experiment: Co-immunoprecipitation of SNARE complexes in activated RBL-2H3 cells, anti-SNAP-23 blot; assay type: cell-based; conditions: peptides added to the medium after A23187 pretreatment; IP of Vp2, blot anti-SNAP-23 (Figure 4C)
T1 construct: Lysates of RBL-2H3 cells; endogenous in cells; host or cells: RBL-2H3 (ATCC CRL-2256)
T1 sequence (P63045 whole entry, one chain of several): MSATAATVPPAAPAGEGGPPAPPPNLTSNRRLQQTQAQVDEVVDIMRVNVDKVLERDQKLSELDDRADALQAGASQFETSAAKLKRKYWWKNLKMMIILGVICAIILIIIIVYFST
Experimental: (§1) Lysates of RBL-2H3 cells (0.5–1 × 10^6 cells), which were obtained by the addition of 1 mL lysis buffer (50 mM Tris–HCl, 150 mM NaCl, 1% Triton X-100™, 1 mM EDTA, pH 7.5) supplemented with a protease inhibitor cocktail (Calbiochem®, Merck Millipore, Billerica, MA, USA), were centrifuged at 13,000 g at 4°C to remove cell debris and precleared with 100 µL protein G Sepharose® (GE Healthcare) for 2 h at 4°C. The precleared lysates were incubated with antibodies against SNARE proteins (Syn4, SNAP-23, VAMP2, and VAMP8) for 2 h at 4°C for binding, and then the antibody–antigen complexes were precipitated by incubation with a protein G slurry overnight with constant shaking. After an extensive washing step with lysis buffer, an immunoblotting analysis was performed for the precipitates. The immunoprecipitated proteins and cell lysates were electrophoresed on 12% sodium dodecyl sulfate-polyacrylamide gel electrophoresis gels and then transferred to nitrocellulose blotting membranes (GE Healthcare). After blocking the membranes in TBST (10 mM Tris–HCl, 150 mM NaCl, and 0.05% Tween® 20, pH 8) containing 0.5% BSA and 5% skim milk for 1 h at room temperature, primary anti-SNAP-23 antibody (1:1,000 dilution) in TBST supplemented with 1% BSA and 0.01% sodium azide was added and incubated at 4°C overnight. The membranes were washed with TBST, treated with a horseradish peroxidase-conjugated secondary anti-mouse IgG antibody (A4416, Sigma-Aldrich), and visualized using enhanced chemiluminescence solution for the development of a luminescent signal.

[6] = target: T2, SN23-Syn4-Vp8 complex (Rattus norvegicus, UniProt O70377+Q08850+Q9WUF4); experiment: as above; assay type: cell-based; conditions: peptides added to the medium after A23187 pretreatment; IP of Vp8, blot anti-SNAP-23 (Figure 4C)
T2 construct: Lysates of RBL-2H3 cells; endogenous in cells; host or cells: RBL-2H3 (ATCC CRL-2256)
T2 sequence (Q08850 1-298): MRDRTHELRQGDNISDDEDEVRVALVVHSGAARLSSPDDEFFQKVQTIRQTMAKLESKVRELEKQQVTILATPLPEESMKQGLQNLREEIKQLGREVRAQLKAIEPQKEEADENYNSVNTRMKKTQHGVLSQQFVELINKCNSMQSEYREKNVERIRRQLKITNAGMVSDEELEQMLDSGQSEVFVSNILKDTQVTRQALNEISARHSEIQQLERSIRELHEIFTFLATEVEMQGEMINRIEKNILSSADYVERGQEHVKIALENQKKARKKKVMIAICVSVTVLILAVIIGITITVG
T2 sequence (O70377 1-210): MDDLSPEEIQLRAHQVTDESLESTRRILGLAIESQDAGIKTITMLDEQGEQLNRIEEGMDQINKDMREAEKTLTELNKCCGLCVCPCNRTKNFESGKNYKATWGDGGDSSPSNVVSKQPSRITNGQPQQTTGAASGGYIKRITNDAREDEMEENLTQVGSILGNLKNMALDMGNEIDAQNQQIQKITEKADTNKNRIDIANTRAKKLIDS
T2 sequence (Q9WUF4 1-100): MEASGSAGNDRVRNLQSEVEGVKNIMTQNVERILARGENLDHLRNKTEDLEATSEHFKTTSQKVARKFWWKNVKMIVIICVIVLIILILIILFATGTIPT
Experimental: as §1

[7] = cells pretreated with A23187, sensitized with DNP-IgE, then PTD-conjugated peptide (Figure 4B)

Row | SMILES | ear thickness [1] | side effect [2] | reduction of β-hexosaminidase release ([3]; 10 µM PTD-fused peptide without SLO (LY294002 as positive control), DNP-BSA stimulation, no A23187 pretreatment, three independent experiments (Figure 2A gray bars, 2C)) | inhibition of β-hexosaminidase release after A23187 pretreatment [3, 7] | inhibition of histamine release ([4]; PTD-conjugated peptide without SLO (LY294002 as positive control), DNP-IgE sensitized, DNP-BSA stimulation, no A23187 pretreatment, three independent experiments (Figure 2C)) | inhibition of histamine release after A23187 pretreatment [4, 7] | SNARE complex formation in cells (amount of SN23-Syn4-Vp2 complex) [5] | SNARE complex formation in cells (amount of SN23-Syn4-Vp8 complex) [6]
1 | C[C@@H]1C[C@H]2[C@@H]3CCC4=CC(=O)C=C[C@]4(C)[C@@]3(F)[C@@H](O)C[C@]2(C)[C@@]1(O)C(=O)CO [Dexamethasone, dexamethasone, reference compound] | recovered the ear thickness to the normal range | skin thinning | – | – | – | – | – | –
2 | O=c1cc(N2CCOCC2)oc2c(-c3ccccc3)cccc12 [LY294002, reference compound] | – | – | efficiently inhibited | efficiently inhibited | efficiently inhibited | efficiently inhibited | did not inhibit | did not inhibit
